Reference: US20240324679A1, “METHODS AND DEVICES FOR CONTROLLING THE TEMPERATURE OF A DRUG FOIL SUBSTRATE TO GENERATE AN AEROSOL” (ALEXZA PHARMACEUTICALS, INC., priority 2021, published 2024)
Structures can show the parent of a compound that is named as a salt.

Legend:
[1] = Vaporization of apomorphine HCl film from drug foil substrate, Heat Source 1 (testing electric heating, Device 1); type: physicochemical; conditions: 0.44 mg/cm^2 coating, airflow ~30 L/min
Procedure: Device 1 has an air inlet and air outlet and a 1 F capacitor (Phoenix Gold Titanium series) to be discharged to resistively heat the substrate (<0.2 sec) and facilitate rapid aerosol formation with a cross-foil airflow of ˜ 30 L/min. Calibration for temperature versus applied voltage was determined with a thermocouple spot-welded to the foil surface.
A 12.7×63.5, 0.127 mm 304-stainless steel drug foil substrate attached to Device 1 with connexions to receive electrical power from an electrical source. Devices were actuated with a constant airflow of ˜ 30 L/min. An example is depicted in FIG. 1D.
(§1) […] was coated on 2.27 cm^2 (0.44 mg/cm^2) on the drug foil substrate of Heat Source 1 or 2 and heated to the temperatures specified in the table below.

[2] = Vaporization of apomorphine HCl film from drug foil substrate, Heat Source 2 (chemical heat package, Device 2); type: physicochemical; conditions: 0.44 mg/cm^2 coating, airflow ~30 L/min
From the text: A 100 mm long device such as that in FIG. 1B, the same shape as that of the Adasuve® device, moulded from PermaStat® resin (antistatic material).
A 47.2×47.2×0.38 mm 304-stainless steel drug foil substrate is attached to a chemical heat package connected to Device 2.
In chemical heat package devices, an exothermic thermite reaction from the reactants inside of the heat package rapidly propagated (˜ 0.1 s) and generated heat nearly instantaneously, which vaporized the drug film. The reactants are calibrated to heat the drug foil substrate to a given temperature. Upper and lower housings were welded prior to vaporization. Devices were actuated with a constant airflow of ˜ 30 L/min.
as §1

[3] = Heat Source 1, substrate temp. 260 °C
[4] = Heat Source 1, substrate temp. 290 °C
[5] = Heat Source 1, substrate temp. 310 °C
[6] = Heat Source 1, substrate temp. 320 °C
[7] = Heat Source 2, substrate temp. 310 °C
[8] = Heat Source 2, substrate temp. 330 °C

Compound: CN1CCc2cccc3c2[C@H]1Cc1ccc(O)c(O)c1-3 [apomorphine HCl]
- % Vaporization [1, 3]: 40.57 ± 9.34%
- Aerosol Purity (%) [1, 3]: 98.35 ± 0.64%
- % Vaporization [1, 4]: 58.03 ± 12.15%
- Aerosol Purity (%) [1, 4]: 96.45 ± 0.93%
- % Vaporization [1, 5]: 59.69 ± 0.34%
- Aerosol Purity (%) [1, 5]: 94.92 ± 1.12%
- % Vaporization [1, 6]: 66.14 ± 0.95%
- Aerosol Purity (%) [1, 6]: 90.89 ± 0.78%
- % Vaporization [2, 7]: 48.32 ± 16.77%
- Aerosol Purity (%) [2, 7]: 91.71 ± 1.62%
- % Vaporization [2, 8]: 61.58 ± 2.07%
- Aerosol Purity (%) [2, 8]: 87.51 ± 0.18%
- % Vaporization ([2]; Heat Source 2, substrate temp. 400 °C): 49.07 ± 1.12%
